From patent US20250109132A1, “COMPOUNDS AND METHODS FOR TREATING FRIEDREICH'S ATAXIA” (Design Therapeutics, Inc., priority 2022, published 2025) come the findings set out here.

One may read the EC50 as the concentration needed to bring the measured effect to its halfway point.

The test system of the experiment is human FXN. Nature of the experiment: EC50 Assay: FXN mRNA expression by qRT-PCR in GM15850 cells. The experiment is classed as cell-based. The settings on record: GM15850 cell suspension, 48 hrs incubation, hFXN expression normalized to hGAPDH, 5-point 3-fold dose response, read-out: EC50 WT (nM, 48 hr). The method, then:
Cell culture: Cells were cultured in RPMI1640 medium+15% FBS. Cells were maintained at a density between […]. Cells were centrifuged, resuspended in fresh medium, counted and plated at 150,000 cells per well in 100 μL in a non-coated, flat bottom tissue culture plate.
Compound treatment: 10 mM stock solution of FA GeneTAC was diluted 1:10 in DMSO followed by a 1:100 dilution in growth medium. Working solution was then further diluted to 1OX desired final concentration of 150 nM. Compound was then diluted at a 1:3 ratio into growth medium containing 0.01% DMSO. 5-point, 3-fold dose response curve was generated. 11 μL of 10× compound was added to wells containing 100 μL cell suspension of GM15850. 11 μL growth medium containing 0.01% DMSO was added to all wells not treated with FA GeneTAC. Cells were allowed to incubate for 48 hrs prior to cell lysis using guanidine isothiocyanate solution.
RNA isolation: Total RNA was isolated and purified in 384-well column filter plates using chaotropic salt.
qRT-PCR: qRT-PCR reactions were assembled using AgPath-ID reagents (Thermo Fisher) using 6 μL mastermix and 4 μL RNA. qRT-PCR TaqMan primer probe sets against human FXN (Assay ID Hs01075496 ml) and human GAPDH (Assay ID Hs00266705_g1) were used to measure the intended targets. qRT-PCR was run on the ThermoFisher QuantStudio 6 PRO instrument using the manufacturer's recommended cycling conditions.
Data analysis: qPCR data was analyzed using Thermo Fisher Design and Analysis software. Data was exported to Excel and hFXN expression was normalized to hGAPDH expression
A<100 nM; B is 100 nM to 500 nM; C>500 nM.
A general note: In qPCR the cycle at which signal appears reflects the starting amount.

SMILES strings stand for the structures.

On to `COC(C)(C)c1ccc(Oc2c(C)cc(F)cc2C)c(-c2cn(C)c(=O)c3[nH]c(C(=O)Nc4ccc(OCCOCCOCCOCCOCCOCCOCCOCCOCCNC(=O)CCNC(=O)c5nc(NC(=O)CCNC(=O)c6cc(NC(=O)c7nc(NC(=O)CCNC(=O)c8cc(NC(=O)c9nccn9C)cn8C)cn7C)cn6C)cn5C)cc4)cc23)c1` [Compound 1], for which the EC50 is below 100 nM.

Consider `Cc1cc(F)cc(C)c1Oc1ccc(S(C)(=O)=O)cc1-c1cn(C)c(=O)c2[nH]c(C(=O)Nc3ccc(OCCOCCOCCOCCOCCOCCOCCOCCOCCNC(=O)CCNC(=O)c4nc(NC(=O)CCNC(=O)c5cc(NC(=O)c6nc(NC(=O)CCNC(=O)c7cc(NC(=O)c8nccn8C)cn7C)cn6C)cn5C)cn4C)cc3)cc12` [Compound 2], for which the 50% effective concentration (EC50) was below 100 nM.

For the compound `CCS(=O)(=O)c1ccc(Oc2c(C)cc(F)cc2C)c(-c2cn(C)c(=O)c3[nH]c(C(=O)Nc4ccc(OCCOCCOCCOCCOCCOCCOCCOCCOCCNC(=O)CCNC(=O)c5nc(NC(=O)CCNC(=O)c6cc(NC(=O)c7nc(NC(=O)CCNC(=O)c8cc(NC(=O)c9nccn9C)cn8C)cn7C)cn6C)cn5C)cc4)cc23)c1` [Compound 3], the EC50 is below 100 nM.

Regarding `COCCOCCOCCOCCOCCOCCOc1cc(NC(=O)c2cc3c(-c4cc(C(C)(C)O)ccc4Oc4c(C)cc(F)cc4C)cn(C)c(=O)c3[nH]2)ccc1OCCOCCOCCOCCOCCOCCOCCOCCOCCNC(=O)CCNC(=O)c1nc(NC(=O)CCNC(=O)c2cc(NC(=O)c3nc(NC(=O)CCNC(=O)c4cc(NC(=O)c5nccn5C)cn4C)cn3C)cn2C)cn1C` [Compound 4], the EC50 is below 100 nM.

Regarding `Cc1cc(F)cc(C)c1Oc1ccc(C(C)(C)O)cc1-c1cn(C)c(=O)c2[nH]c(C(=O)NCc3cn(CCOCCOCCOCCOCCOCCOCCOCCOCCNC(=O)CCNC(=O)c4nc(NC(=O)CCNC(=O)c5cc(NC(=O)c6nc(NC(=O)CCNC(=O)c7cc(NC(=O)c8nccn8C)cn7C)cn6C)cn5C)cn4C)nn3)cc12` [Compound 5], the EC50 was below 100 nM.

Consider `Cc1cc(F)cc(C)c1Oc1ccc(C(C)(C)O)cc1-c1cn(C)c(=O)c2[nH]c(C(=O)NCc3ccc(OCCOCCOCCOCCOCCOCCOCCOCCOCCNC(=O)CCNC(=O)c4nc(NC(=O)CCNC(=O)c5cc(NC(=O)c6nc(NC(=O)CCNC(=O)c7cc(NC(=O)c8nccn8C)cn7C)cn6C)cn5C)cn4C)cc3)cc12` [Compound 6], for which the EC50 is below 100 nM.

For the compound `Cc1cc(F)cc(C)c1Oc1ccc(C(C)(C)O)cc1-c1cn(C)c(=O)c2[nH]c(C(=O)Nc3ccc(OCCOCCOCCOCCOCCOCCOCCOCCOCCNC(=O)c4nc(NC(=O)CCNC(=O)c5cc(NC(=O)c6nc(NC(=O)CCNC(=O)c7cc(NC(=O)c8nccn8C)cn7C)cn6C)cn5C)cn4C)cc3)cc12` [Compound 7], the EC50 is below 100 nM.

`Cc1cc(F)cc(C)c1Oc1ccc(C(C)(C)O)cc1-c1cn(C)c(=O)c2[nH]c(C(=O)Nc3ccc(OCCOCCOCCOCCOCCOCCOCCOCCOCCNC(=O)c4nc(NC(=O)CCNC(=O)c5cc(NC(=O)c6nc(NC(=O)CCNC(=O)c7cc(NC(=O)c8nccn8C)c[nH]7)cn6C)c[nH]5)cn4C)cc3)cc12` [Compound 9]: the EC50 is below 100 nM.

Regarding `Cc1cc(F)cc(C)c1Oc1ccc(C(C)(C)O)cc1-c1cn(C)c(=O)c2[nH]c(C(=O)Nc3ccc(OCCOCCOCCOCCOCCOCCOCCOCCOCCNC(=O)CCNC(=O)CCNC(=O)c4nc(NC(=O)CCNC(=O)c5cc(NC(=O)c6nc(NC(=O)CCNC(=O)c7cc(NC(=O)c8nccn8C)cn7C)cn6C)cn5C)cn4C)cc3)cc12` [Compound 10], the EC50 was below 100 nM.

`Cc1cc(F)cc(C)c1Oc1ccc(C(C)(C)O)cc1-c1cn(C)c(=O)c2[nH]c(C(=O)Nc3ccc(OCCOCCOCCOCCOCCOCCNC(=O)CCNC(=O)c4nc(NC(=O)CCNC(=O)c5cc(NC(=O)c6nc(NC(=O)CCNC(=O)c7cc(NC(=O)c8nccn8C)cn7C)cn6C)cn5C)cn4C)cc3)cc12` [Compound 11]: the EC50 was below 100 nM.

As for `Cc1cc(F)cc(C)c1Oc1ccc(C(C)(C)O)cc1-c1cn(C)c(=O)c2[nH]c(C(=O)Nc3ccc(OCCOCCOCCOCCOCCOCCOCCOCCOCCNC(=O)CCNC(=O)c4nc(NC(=O)CCNC(=O)c5cc(NC(=O)c6nc(NC(=O)CCNC(=O)c7cc(NC(=O)c8nccn8C)cn7C)cn6C)cn5C)cn4C)c(O)c3)cc12` [Compound 12], the EC50 is below 100 nM.

Turning to `Cc1cc(F)cc(C)c1Oc1ccc(C(C)(C)O)cc1-c1cn(C)c(=O)c2[nH]c(C(=O)Nc3ccc(OCCOCCOCCOCCOCCOCCOCCOCCOCCNC(=O)CCNC(=O)c4nc(NC(=O)CCNC(=O)c5cc(NC(=O)c6nc(NC(=O)CCNC(=O)c7cc(NC(=O)c8nccn8C)cn7C)cn6C)cn5C)cn4C)cc3)cc12` [Compound 15], the concentration for a half-maximal effect (EC50) is below 100 nM.

For the compound `CCNC(=O)c1cc2c(-c3cc(C(C)(C)O)ccc3Oc3c(C)cc(OCCOCCOCCOCCOCCOCCOCCOCCOCCNC(=O)CCNC(=O)c4nc(NC(=O)CCNC(=O)c5cc(NC(=O)c6nc(NC(=O)CCNC(=O)c7cc(NC(=O)c8nccn8C)cn7C)cn6C)cn5C)cn4C)cc3C)cn(C)c(=O)c2[nH]1` [Compound 17], the EC50 was below 100 nM.
